Measurements reported in patent US20180132470A1, “CONTROLLED STAND-ALONE MATRIX SYSTEM FOR THE CONTROLLED DISTRIBUTION OF ACTIVE SUBSTANCES” (AB7 Innovation S.A.S.U., priority 2015, published 2018).

Experiment: Release of IR3535 from cast polyurethane matrix, with and without heating activation
Assay type: physicochemical
Protocol: For the matrix, the same inputs are used as in Example 1. The PMEO is replaced by insecticide (IR3535®), which represents 30% by weight in relation to the total weight of the matrix.
The electronic card is programmed as in Example 2 except that the heating is systematically cut off when the intra-matrix temperature reaches 150° C.
FIG. 4 represents the reference release profile of IR3535® which is a non-volatile substance at ambient temperature. […] The sequential and successive activations were performed for 18 hours at a rate of 10 minutes heating followed by 20 minutes' pause. The intra-matrix temperature measured was 45° C.

residual quantity of IR3535 in relation to the quantity initially incorporated (after 590 sequences of heating): 9.5 % by weight | release of IR3535 initially incorporated (after 18 hours, sequential activations 10 min heating / 20 min pause, intra-matrix 45° C., cast polyurethane matrix): up to 3 % by weight | release of IR3535 by passive diffusion (same polyurethane matrix unheated at ambient temperature, even after 20 hours): releases absolutely nothing | average quantity of IR3535 released (solely at moments of activation, cast polyurethane matrix): 3.5 mg/h
SMILES: CCCCN(CCC(=O)OCC)C(C)=O [IR3535®, ethyl-3-acetyl(butyl)amino-propanoate]
